This note sets out measurements from article PMC6389928, “Biomolecular Interaction, Anti-Cancer and Anti-Angiogenic Properties of Cobalt(III) Schiff Base Complexes” (Scientific Reports, 2019).

For data set [1], the system named is monkey kidney epithelial cell Vero. Put plainly: MTT assay on Vero cells. The text has this:
The anti-proliferative property of the complexes 1 and 2 at different concentrations on A549 lung carcinoma cell and monkey kidney epithelial cell Vero was examined by adopting MTT assay (Fig. S7). […] The naked cobalt acetate and ligands salen and salophen were separately tested on A549 cells to understand if metal chelation is the principal basis of the anticancer activity of the complexes.
Culture: Human lung cancer cells (A549) were received from National Centre for Cell Science (NCCS) Pune, India. Vero cells were obtained from ATCC. The cells were grown at humidified atmosphere of 5% CO2 in an incubator at 37 °C (Forma, Thermo Scientific, USA) in DMEM medium (Invitrogen) containing 10% FBS (Sigma-Aldrich, St. Louis, Mo, USA), 100 μg/mL of penicillin and 100 μg/mL streptomycin were used as antibiotics (Himedia, Mumbai, India). […] The cells were seeded in 96 well plates (5000 A549 cells per well) and allowed to attach for 24 h. The cells were then incubated with different concentrations of the metal complexes 1 and 2 dissolved in 100% dimethyl sulfoxide (DMSO) (Sigma-Aldrich) and prepared to a final dilution of 0.02% of DMSO.
In the determination of IC50 value, 0.02% DMSO was used as the solvent control. After the end of incubation period (24 h), the medium was aspirated carefully and replaced with new medium. The formazan formed was dissolved in100 μL of 100% DMSO to each well. […]

Data set [2] deals with A549 cells. Conditions: A549, respective IC50 concentrations, 24 h. As for the experimental part: AO/EB Staining of A549 cells: The mode of cell death induced by the complexes was deciphered using acridine orange (AO) and ethidium bromide (EB) staining protocol. Cells were cultured in 6 well plates, treated with the complexes and allowed for 24 h. Then the cells were incubated with AO and EB solutions (1 part of 100 μg/mL AO and 1 part of 100 μg/mL of EB in PBS) and examined in a fluorescent microscope (Carl Zeiss, Jena, Germany) using a UV filter (450–490 nm). Three hundred cells per sample were counted in triplicate for each dose point. The cells were scored as viable, apoptotic and necrotic as judged by the staining pattern, nuclear morphology and cytoplasmic integrity. The percentage of apoptotic and necrotic cells were calculated and the morphological changes were also photographed.

A further data set deals with DNA. The data set can be described thus: Viscosity measurement of DNA. It counts as binding. The settings on record: 30.0 ± 0.2 °C, increasing amounts of compound. The text has this: The mode of interaction between DNA and complexes has been further confirmed using viscosity measurements. The intercalation between DNA and metal complex causes lengthening of the DNA helix and increases DNA’s relative viscosity. Ethidium bromide (EB) is a well known DNA intercalator which was used as a standard to make sure our viscosity determination was working properly. […] The increase in relative viscosity follows the DNA-intercalating ability and the order of relative viscosity is EB > 2 > 1.
CD spectra of CT–DNA in the absence and presence of cobalt(III) complexes 1 and 2 were recorded in phosphate buffer. Each sample solution was scanned in the range of 200–320 nm, and final CD spectra were generated after averaging three scans subtracting the buffer background. Viscosity experiments were performed using an Ubbelohde viscometer at a constant temperature (30.0 ± 0.2 °C).

Data set [3] relates to A549 cells. Put plainly: Cell cycle analysis by flow cytometry. It counts as cell-based, Human. Conditions: A549, IC50 concentrations, 24 h, propidium iodide, compared to control. As for the experimental part:
The possible cell cycle arrest was determined by flow cytometer which is used to distinguish and quantify the cells in different phases of the cell cycle. The cells were treated with the complexes 1 and 2 at the respective half maximal inhibitory concentrations. The cells were fixed, stained with propidium iodide and analysed for DNA/cell content as aspects of cell cycle distribution. The DNA histograms and the percentage of cells in each of the phases are given Fig. 5. […] The increase of cell accumulation in sub G0 - G1 phase indicated delay in progression of cell cycle. The cells thus inhibited in division end up in the apoptosis due to sub G0 − G1 check point arrest. […] In as much as apoptosis itself could be induced due to the DNA damage, necrosis is a clear indication of damage caused by the complexes to the cytosol.
Cell cycle analysis: Cell phase distribution was determined by flow cytometry with DNA staining to reveal the total amount of DNA[94]. […] After incubation, the cells were trypsinized, harvested, fixed in 1 mL 80% cold ethanol and incubated at 4 °C for 15 min. […] Cell cycle distribution was analyzed using FACS (fluorescent activated cell sorter) (Becton-Dickinson, Sanjose, CA, USA) with 15 mW, 488 nm argon ion laser. […] The data were acquired and analyzed using Dean-Jett-Fox algorithm.

A further data set concerns CT-DNA. The data set can be described thus: Electronic absorption titration of the complexes with CT-DNA. It counts as binding. Conditions: for intrinsic binding constant Kb: CT-DNA, plot of [DNA]/(εa−εf) vs [DNA]; for percentage of hypochromism (% H) / red shift: absorption spectra on incremental addition of CT-DNA. As for the experimental part:
The absorption spectra of the complexes 1 and 2 were measured in presence and absence of CT-DNA, and the results are shown in Fig. 2.
The value of DNA binding constant (Kb) of the complexes 1 and 2 were calculated using the equation[32], [DNA]/(εa−εf)=[DNA]/(ε0−εf)+1/Kb(ε0−εf) where [DNA] is the concentration of DNA expressed in base pairs; εa is called as apparent extinction coefficient which is determined by calculating Aobs/[complex], εf and ε0 are the apparent free and fully-bound cobalt(III) complex extinction coefficients.
The intrinsic binding constants Kb of complexes 1 and 2 were calculated from the plot of [DNA]/ (εa-εf) versus [DNA] the values are shown in Table 1. […] As both the complexes intercalated with DNA, it is expected that salicylaldehyde aromatic moiety is involved in the intercalation. […] This is due to the presence of additional aromatic phenyl ring in the salophen Schiff base ligand in complex 2 which enhanced stacking interaction between salicylaldehyde aromatic moiety and DNA bases.
Concentrated stock solution of DNA was prepared in PBS and sonicated for 25 cycles, where in each cycle consisted of 30 seconds with 1 min intervals. The DNA concentration per nucleotide was determined by electronic absorption spectroscopy using the known molar extinction coefficient value of 6600 M^−1 cm^−1 at 260 nm[79].
The stock solutions were prepared by dissolving the complexes 1 and 2 in an aqueous solution of DMSO as the co-solvent, and then diluted suitably with the corresponding buffer to the required concentrations for all the experiments. The final DMSO concentration never exceeded 0.5%. For absorption and emission spectral experiments, the DNA solutions were pre-treated with the solutions of metal complexes to ensure no change in the metal complex concentrations.
Absorption studies were performed by maintaining the constant concentration of both the complexes and varying the CT-DNA concentration. An equal amount of CT-DNA was added to the complexes and the reference solution to eliminate the absorbance of CT-DNA itself.

Where two headings read alike, the source gives them in different places.

As for `CCCCCCCCCCCC[NH2+][Co-3]123([NH2+]CCCCCCCCCCCC)[O]c4ccccc4C=[N+]1CC[N+]2=Cc1ccccc1[O]3.[O-][Cl+3]([O-])([O-])[O-]` [Complex 1, trans-[Co(salen)(DA)2](ClO4)], in data set [1], the “concentration up to which no significant toxicity” value is > 150 µM. Moreover, in the data set with A549 cells [2], the “mode of cell death (AO/EB staining)” value is “most of the cells succumbed to apoptosis and a few to necrosis”. For the same compound, in the data set with DNA, the “effect on relative viscosity of DNA” value is reported as “the relative viscosity of DNA increased”. For the same compound, in the data set on A549 cells [3], the “effect on cell cycle distribution” value is “gradual increase in sub G0 − G1 and G2 − M phases”. In the data set with CT-DNA, the “intrinsic binding constant Kb” value is 13100 M⁻¹, the “percentage of hypochromism (% H)” value stood at 31.54% and the red shift is on record as 10 nm.
For the compound `CCCCCCCCCCCC[NH2+][Co-3]123([NH2+]CCCCCCCCCCCC)[O]c4ccccc4C=[N+]1c1ccccc1[N+]2=Cc1ccccc1[O]3.[O-][Cl+3]([O-])([O-])[O-]` [Complex 2, trans-[Co(salophen)(DA)2](ClO4)], the “concentration up to which no significant toxicity” value in data set [1] (Vero cells, MTT) is > 150 µM. The “mode of cell death (AO/EB staining)” value with A549 cells [2] was “most of the cells succumbed to apoptosis and a few to necrosis”. The “effect on relative viscosity of DNA” value in the data set with DNA is listed as “the relative viscosity of DNA increased”. Also, the “effect on cell cycle distribution” value in the data set on A549 cells [3] was “gradual increase in sub G0 − G1 and G2 − M phases”. For the same compound, in the data set with CT-DNA, the “intrinsic binding constant Kb” value turned out to be 31500 M⁻¹, the “percentage of hypochromism (% H)” value turned out to be 36.81% and the red shift was determined as 13 nm.
